Each structure is given as a SMILES string. “And” between values parts separate entries of the source, which are not always exact repeats. Equal values may be shown once. “Also recorded” adds a separate entry of the source.

Here are results for one compound from publication PMC6825221, “In silico re-engineering of a neurotransmitter to activate KCNQ potassium channels in an isoform-specific manner” (Communications Biology, 2019).

For one assay, the target named is KCNQ2/KCNQ3-W265L (Homo sapiens, UniProt O43525+O43526, W265L). The assay can be described thus: TEVC of KCNQ2/3 with KCNQ3-W265L mutation. Type of assay: cell-based. From the text:
We generated cRNA transcripts encoding human KCNQ1, KCNQ2, KCNQ3, KCNQ4, KCNQ5 or GLRA1 (NM_001146040) (GenScript, Piscataway, NJ, USA) by in vitro transcription using the T7 polymerase mMessage mMachine kit (Thermo Fisher Scientific), after vector linearization, from cDNA sub-cloned into plasmids incorporating Xenopus laevis β-globin 5′ and 3′ UTRs flanking the coding region to enhance translation and cRNA stability. We quantified cRNA by spectrophotometry. We generated mutant KCNQ2 and KCNQ3 cDNAs by site-directed mutagenesis using a QuikChange kit (Stratagene, San Diego, CA) and prepared the corresponding cRNAs as above. […]
(§1) We performed TEVC at room temperature using an OC-725C amplifier (Warner Instruments, Hamden, CT) and pClamp10 software (Molecular Devices, Sunnyvale, CA) 2–5 days after cRNA injection as described in the section above. […] Currents were recorded in response to voltage pulses between −120 or −80 mV and + 40 mV at 20 mV intervals from a holding potential of −80 mV, to yield current-voltage relationships, current magnitude, and for quantifying activation rate. We analyzed data using Clampfit (Molecular Devices) and Graphpad Prism software (GraphPad, San Diego, CA, USA); values are stated as mean ± SEM. […]

Assay [1] addresses T1, KCNQ3* (Homo sapiens, UniProt O43525, A315T). The assay can be described thus: [3H]GABA binding and competition, oocytes expressing KCNQ3*. The conditions noted are these: 100 µM.
Description: Oocytes were then washed four times in 16 °C ND96, transferred to individual wells in a 96 well plate and lysed in 0.2% SDS in ND96. Each oocyte lysate was transferred to a scintillation vial containing 5 ml Cytoscint scintillation cocktail fluid (MP Biomedicals, Santa Ana, CA). Vials were capped, shaken, and then allowed to sit at room temperature for at least 30 min before scintillation counting in a Beckmann Coulter LS6500 liquid scintillation counter.
The target of the next assay is KCNQ5 (Homo sapiens, UniProt Q9NR82). The assay can be described thus: TEVC of homomeric KCNQ5 expressed in Xenopus oocytes. Type of assay: cell-based. The conditions noted are these: read-out: EC50, KCNQ5 activation.
Description: (§2) We generated cRNA transcripts encoding human KCNQ1, KCNQ2, KCNQ3, KCNQ4, KCNQ5 or GLRA1 (NM_001146040) (GenScript, Piscataway, NJ, USA) by in vitro transcription using the T7 polymerase mMessage mMachine kit (Thermo Fisher Scientific), after vector linearization, from cDNA sub-cloned into plasmids incorporating Xenopus laevis β-globin 5′ and 3′ UTRs flanking the coding region to enhance translation and cRNA stability. We quantified cRNA by spectrophotometry. We generated mutant KCNQ2 and KCNQ3 cDNAs by site-directed mutagenesis using a QuikChange kit (Stratagene, San Diego, CA) and prepared the corresponding cRNAs as above. We injected defolliculated stage V and VI Xenopus laevis oocytes (Ecocyte Bioscience, Austin, TX and Xenoocyte, Dexter, MI) with KCNQ channel α subunit (5-20 ng) or GLRA1 (20 ng) cRNAs. We incubated the oocytes at 16 °C in Barth’s saline solution (Ecocyte Bioscience) containing penicillin and streptomycin, with daily washing, for 2–5 days prior to two-electrode voltage-clamp (TEVC) recording.
as §1, with “above. For recording, oocytes were placed in a small-volume oocyte bath (Warner) and viewed them with a dissection microscope. Chemicals were sourced from Sigma, Matrix Scientific and Santa Cruz. […] All stock solutions were diluted in bath solution on the day of experiments. KCNQ2/3 channel activation was screened for using either 30 µM or 100 µM concentrations of each of the six compounds, then dose responses were conducted as appropriate.” for “above.”

In assay [2] the target is T1, KCNQ3*. The assay can be described thus: TEVC of homomeric KCNQ3* (A315T KCNQ3 mutant) expressed in Xenopus oocytes. Type of assay: cell-based.
Description: We next validated the in silico predictions using two-electrode voltage clamp of homomeric neuronal KCNQ2-5 channel isoforms expressed in Xenopus laevis oocytes. […] As in previous studies[8],[10], we used the A315T KCNQ3 mutant (KCNQ3*) that ensures large enough currents to accurately quantify voltage dependence and pharmacology of homomeric KCNQ3[16].
as §2
(§3) We performed TEVC at room temperature using an OC-725C amplifier (Warner Instruments, Hamden, CT) and pClamp10 software (Molecular Devices, Sunnyvale, CA) 2–5 days after cRNA injection as described in the section above. For recording, oocytes were placed in a small-volume oocyte bath (Warner) and viewed them with a dissection microscope. Chemicals were sourced from Sigma, Matrix Scientific and Santa Cruz. […] All stock solutions were diluted in bath solution on the day of experiments. KCNQ2/3 channel activation was screened for using either 30 µM or 100 µM concentrations of each of the six compounds, then dose responses were conducted as appropriate. Bath solution was (in mM): 96 NaCl, 4 KCl, 1 MgCl2, 1 CaCl2, 10 HEPES (pH 7.6). Compounds were introduced into the oocyte recording bath by gravity perfusion at a constant flow of 1 ml per minute for 3 min prior to recording. Pipettes were of 1–2 MΩ resistance when filled with 3 M KCl. Currents were recorded in response to voltage pulses between −120 or −80 mV and + 40 mV at 20 mV intervals from a holding potential of −80 mV, to yield current-voltage relationships, current magnitude, and for quantifying activation rate. We analyzed data using Clampfit (Molecular Devices) and Graphpad Prism software (GraphPad, San Diego, CA, USA); values are stated as mean ± SEM. […]

The target in the next assay is KCNQ1 (Homo sapiens, UniProt P51787). Put plainly: TEVC of homomeric KCNQ1 expressed in Xenopus oocytes. The conditions noted are these: dose response, ΔV0.5act. Type of assay: cell-based.
Description: as §2
as §3, with “Bath solution was (in mM): 96 NaCl, 4 KCl, 1 MgCl2, 1 CaCl2, 10 HEPES (pH 7.6). Compounds were introduced into the oocyte recording bath by gravity perfusion at a constant flow of 1 ml per minute for 3 min prior to recording. Pipettes were of 1–2 MΩ resistance when filled with 3 M KCl.” left out

For another assay, the target named is KCNQ2 (Homo sapiens, UniProt O43526). Put plainly: TEVC of homomeric KCNQ2 expressed in Xenopus oocytes. Type of assay: cell-based.
Description: as §2, with “We generated mutant KCNQ2 and KCNQ3 cDNAs by site-directed mutagenesis using a QuikChange kit (Stratagene, San Diego, CA) and prepared the corresponding cRNAs as above.” left out
(§4) For recording, oocytes were placed in a small-volume oocyte bath (Warner) and viewed them with a dissection microscope. Chemicals were sourced from Sigma, Matrix Scientific and Santa Cruz. […] All stock solutions were diluted in bath solution on the day of experiments. KCNQ2/3 channel activation was screened for using either 30 µM or 100 µM concentrations of each of the six compounds, then dose responses were conducted as appropriate. Bath solution was (in mM): 96 NaCl, 4 KCl, 1 MgCl2, 1 CaCl2, 10 HEPES (pH 7.6). Compounds were introduced into the oocyte recording bath by gravity perfusion at a constant flow of 1 ml per minute for 3 min prior to recording. Pipettes were of 1–2 MΩ resistance when filled with 3 M KCl. Currents were recorded in response to voltage pulses between −120 or −80 mV and + 40 mV at 20 mV intervals from a holding potential of −80 mV, to yield current-voltage relationships, current magnitude, and for quantifying activation rate. We analyzed data using Clampfit (Molecular Devices) and Graphpad Prism software (GraphPad, San Diego, CA, USA); values are stated as mean ± SEM. We plotted raw or normalized tail currents versus prepulse voltage and fitted with a single Boltzmann function:1 g=(A1−A2)/1+exp(V12−V)∕VS+A2, where g is the normalized tail conductance, A1 is the initial value at −∞, A2 is the final value at +∞, V1/2 is the half-maximal voltage of activation and Vs the slope factor. Activation, deactivation, wash-in and washout kinetics were fitted with single exponential functions to yield a τ value.

The target of a further assay is KCNQ2/3 (Homo sapiens, UniProt O43525+O43526). The assay can be described thus: TEVC of KCNQ2/3 channels expressed in Xenopus oocytes. Type of assay: cell-based.
Sequence of KCNQ2/3 (O43525 whole entry): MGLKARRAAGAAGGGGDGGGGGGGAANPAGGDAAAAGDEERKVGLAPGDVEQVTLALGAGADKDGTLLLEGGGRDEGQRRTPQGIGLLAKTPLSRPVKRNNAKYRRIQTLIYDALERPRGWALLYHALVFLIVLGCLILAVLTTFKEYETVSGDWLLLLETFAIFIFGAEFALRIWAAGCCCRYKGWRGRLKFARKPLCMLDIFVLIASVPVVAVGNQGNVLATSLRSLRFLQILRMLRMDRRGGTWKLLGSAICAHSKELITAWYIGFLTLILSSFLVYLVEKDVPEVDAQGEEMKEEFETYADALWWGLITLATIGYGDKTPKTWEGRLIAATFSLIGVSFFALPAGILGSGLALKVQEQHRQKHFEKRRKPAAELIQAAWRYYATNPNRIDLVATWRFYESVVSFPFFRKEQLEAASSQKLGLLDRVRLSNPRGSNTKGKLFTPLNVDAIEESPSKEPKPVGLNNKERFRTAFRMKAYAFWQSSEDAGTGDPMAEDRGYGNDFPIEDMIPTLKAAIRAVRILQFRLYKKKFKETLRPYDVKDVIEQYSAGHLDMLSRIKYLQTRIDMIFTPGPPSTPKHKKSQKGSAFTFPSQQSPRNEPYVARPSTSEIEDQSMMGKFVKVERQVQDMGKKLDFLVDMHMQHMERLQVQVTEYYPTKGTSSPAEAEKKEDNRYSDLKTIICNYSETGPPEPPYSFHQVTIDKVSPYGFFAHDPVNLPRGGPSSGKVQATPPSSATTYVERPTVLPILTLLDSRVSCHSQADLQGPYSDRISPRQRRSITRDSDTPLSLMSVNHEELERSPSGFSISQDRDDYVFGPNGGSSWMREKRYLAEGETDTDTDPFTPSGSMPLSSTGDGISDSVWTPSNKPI
Sequence of KCNQ2/3 (O43526 whole entry): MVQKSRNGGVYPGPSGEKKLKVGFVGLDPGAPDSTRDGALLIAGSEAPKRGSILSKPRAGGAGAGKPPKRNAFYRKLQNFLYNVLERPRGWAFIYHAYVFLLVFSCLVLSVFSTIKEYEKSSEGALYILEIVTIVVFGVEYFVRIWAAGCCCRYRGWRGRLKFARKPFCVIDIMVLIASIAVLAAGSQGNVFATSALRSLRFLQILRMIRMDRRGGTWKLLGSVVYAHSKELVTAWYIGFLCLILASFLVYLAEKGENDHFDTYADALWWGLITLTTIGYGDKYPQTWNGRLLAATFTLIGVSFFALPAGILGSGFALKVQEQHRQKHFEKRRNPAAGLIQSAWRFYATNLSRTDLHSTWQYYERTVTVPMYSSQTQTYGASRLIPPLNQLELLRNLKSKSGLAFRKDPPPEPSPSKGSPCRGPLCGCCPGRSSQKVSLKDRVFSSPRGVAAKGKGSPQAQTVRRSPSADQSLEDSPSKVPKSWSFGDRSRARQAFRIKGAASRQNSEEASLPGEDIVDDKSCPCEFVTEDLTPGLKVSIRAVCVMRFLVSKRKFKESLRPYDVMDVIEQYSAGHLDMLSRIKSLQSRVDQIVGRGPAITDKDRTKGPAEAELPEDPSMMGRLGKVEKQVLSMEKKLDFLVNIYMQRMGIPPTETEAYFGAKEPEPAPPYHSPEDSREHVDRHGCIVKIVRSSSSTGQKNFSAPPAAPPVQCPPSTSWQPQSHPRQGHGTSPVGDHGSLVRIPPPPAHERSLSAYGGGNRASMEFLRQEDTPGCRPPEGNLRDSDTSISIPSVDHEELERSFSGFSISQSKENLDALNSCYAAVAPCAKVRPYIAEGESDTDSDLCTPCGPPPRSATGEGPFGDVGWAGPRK
Description: as §2, with “We generated mutant KCNQ2 and KCNQ3 cDNAs by site-directed mutagenesis using a QuikChange kit (Stratagene, San Diego, CA) and prepared the corresponding cRNAs as above.” left out
as §4

[3] abbreviates: 100 µM, −60 mV, single exponential fit.

For `CS(=O)(=O)N(CC(=O)O)c1cccc(F)c1` [3FMSG], at KCNQ2/KCNQ3-W265L, the “effect of the KCNQ3-W265L mutation within KCNQ2/3” value is “dependent on KCNQ3-W265; also recorded: eliminated effects of 3FMSG”. The “competition of GABA binding to KCNQ3*” value on KCNQ3* [1] is listed as “able to compete out GABA binding”. For the same compound, the EC50 at KCNQ5 was found to be 171 ± 112 nM; on KCNQ3* [2] (ΔV0.5act, read-out: EC50, KCNQ3* activation), 18 ± 12 nM; on KCNQ2/3 (shift in voltage dependence of activation (ΔV0.5act), TEVC in oocytes, read-out: EC50, KCNQ2/3 activation), 51 ± 21 nM. Besides, the “KCNQ3* activation and deactivation rates” value at KCNQ3* [2] (100 µM) was “speeded activation and slowed deactivation”. The “effects on KCNQ1” value on KCNQ1 is on record as “negligible or much less potent effects”. For the same compound, the “effect of a tenfold excess (100 µM) on KCNQ2 activation by 2FPG (10 µM)” value on KCNQ2 is recorded as “subtly reduced the efficacy of 2FPG”. Moreover, the “effects on KCNQ2” value at KCNQ2 (dose response) was “negligible or much less potent effects”. In addition, the “KCNQ2/3 activation and deactivation rates” value on KCNQ2/3 (100 µM, single exponential fit (τ)) was “speeded KCNQ2/3 activation and slowed its deactivation”. Also, the “tau of KCNQ2/3 current decrease during washout” value on KCNQ2/3 (setting [3]) is 40 s and 39 ± 10 s. For the same compound, the “tau of KCNQ2/3 current increase during wash-in” value at KCNQ2/3 (setting [3]) was ~ 15 s and 15 ± 3 s. In addition, the “increase in KCNQ2/3 current at −60 mV” value on KCNQ2/3 (either compound alone, 1 uM) was “~ fivefold”.
